Measurements as given in US20250313563A1, “GLYCOGEN SYNTHASE KINASE 3 INHIBITORS AND USES THEREOF” (The Broad Institute, Inc., priority 2022, published 2025).
Read-outs that look alike come from different tables or passages of the source.

Key:
[1] = biological target: GSK3b (GST-full length GSK3b) (Homo sapiens (Human), UniProt P49841); assay: GSK3b TR-FRET kinase assay; assay type: biochemical
Method in brief: (§1)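 Compound preincubated 30 min, then 1 nM GST-full-length GSK3α or GSK3b run 100 min at ambient temperature with 200 nM biotinylated, S645-prephosphorylated glycogen synthase 631-650 peptide in Tris pH 7.5, MgCl2, DTT, BSA, 1% DMSO. ATP 4 μM (α) or 2 μM (β), or 1 mM. EDTA-quenched; Tb-anti-pSer641/streptavidin-d2 TR-FRET 665/615 ratio gave IC50.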

[2] = biological target: GSK3α (GST-full length GSK3α) (Homo sapiens (Human), UniProt P49840); assay: GSK3α TR-FRET kinase assay; assay type: biochemical
Chain of GSK3α (GST-full length GSK3α) (P49840 whole entry): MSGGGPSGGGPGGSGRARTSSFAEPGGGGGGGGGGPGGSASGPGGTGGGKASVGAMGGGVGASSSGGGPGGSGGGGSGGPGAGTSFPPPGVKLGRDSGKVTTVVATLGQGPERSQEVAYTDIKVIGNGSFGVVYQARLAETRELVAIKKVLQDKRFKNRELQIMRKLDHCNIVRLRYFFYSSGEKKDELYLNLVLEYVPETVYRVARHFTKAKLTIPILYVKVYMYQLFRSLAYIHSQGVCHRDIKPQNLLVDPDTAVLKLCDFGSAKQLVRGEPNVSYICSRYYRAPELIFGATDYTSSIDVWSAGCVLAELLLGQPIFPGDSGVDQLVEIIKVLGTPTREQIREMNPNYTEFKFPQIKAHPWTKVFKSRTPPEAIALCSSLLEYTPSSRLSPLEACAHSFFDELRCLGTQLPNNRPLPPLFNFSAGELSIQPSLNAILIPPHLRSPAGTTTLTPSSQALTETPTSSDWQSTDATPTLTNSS
Method in brief: as §1

[3] = 1 nM GSK3b, 2 μM ATP, 30 minute preincubation, Table 16, read-out: GSK3-B TR-FRET BIOCHEMICAL (TR-FRET)
[4] = 1 nM GSK3α, 4 μM ATP, 30 minute preincubation, Table 16, read-out: GSK3-A TR-FRET BIOCHEMICAL (TR-FRET)
[5] = 1 nM GSK3b, 2 μM ATP, 30 minute preincubation, read-out: GSK3-B TR-FRET BIOCHEMICAL (TR-FRET), IC50
[6] = 1 nM GSK3α, 4 μM ATP, 30 minute preincubation, read-out: GSK3-A TR-FRET BIOCHEMICAL (TR-FRET), IC50
[7] = read-out: GSK3-B (TR-FRET 1 mM ATP), GMean, IC50, 1 mM ATP, geometric mean
[8] = read-out: GSK3-A (TR-FRET 1 mM ATP), GMean, IC50, 1 mM ATP, geometric mean
[9] = GSK3-B (TR-FRET 1 mM ATP), GMean, IC50, 1 mM ATP, geometric mean
[10] = GSK3-A (TR-FRET 1 mM ATP), GMean, IC50, 1 mM ATP, geometric mean

Chain of GSK3b (GST-full length GSK3b) (P49841 whole entry): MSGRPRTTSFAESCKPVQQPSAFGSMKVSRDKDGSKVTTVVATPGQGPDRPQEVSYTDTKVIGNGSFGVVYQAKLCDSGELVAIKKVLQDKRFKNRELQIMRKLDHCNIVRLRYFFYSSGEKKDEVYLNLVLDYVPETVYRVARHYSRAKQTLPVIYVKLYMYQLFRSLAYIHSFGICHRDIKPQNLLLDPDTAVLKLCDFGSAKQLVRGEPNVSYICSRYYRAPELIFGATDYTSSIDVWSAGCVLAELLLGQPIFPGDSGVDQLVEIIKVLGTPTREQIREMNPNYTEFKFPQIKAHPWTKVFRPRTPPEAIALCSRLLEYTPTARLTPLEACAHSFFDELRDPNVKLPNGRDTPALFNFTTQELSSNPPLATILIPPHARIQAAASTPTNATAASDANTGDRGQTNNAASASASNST

Row | Compound | IC50 [1, 3] [µM] | IC50 [2, 4] [µM] | further results
1 | Cc1cc(-c2cccc3c2CCC[C@]32C3=C(CC(C)(C)CC3=O)Nc3n[nH]cc32)ccn1 [Compound 945549] | ≤ 0.1 | ≤ 0.1 | –
2 | Cc1cc(-c2cccc3c2CCC[C@@]32C3=C(CC(C)(C)CC3=O)Nc3n[nH]cc32)ccn1 [Compound 945550] | > 5 | 0.1 to 1 | –
3 | Cn1nccc1-c1cccc2c1CCC[C@]21C2=C(CC(C)(C)CC2=O)Nc2n[nH]cc21 [Compound 945551] | ≤ 0.1 | ≤ 0.1 | –
4 | Cn1nccc1-c1cccc2c1CCC[C@@]21C2=C(CC(C)(C)CC2=O)Nc2n[nH]cc21 [Compound 945552] | > 5 | 0.1 to 1 | –
5 | CCC1(c2cccc(-c3c(C)nn(C)c3C)c2)C2=C(CC(C)(C)NC2=O)Nc2n[nH]c(C)c21 (stereo not shown) [Compound 945598] | – | – | IC50 [1, 5]: ≤ 0.1 µM; IC50 [2, 6]: ≤ 0.1 µM
6 | CCc1cc(N(C)c2cccc(C3(CC)C4=C(CC(C)(C)CC4=O)Nc4n[nH]cc43)c2)ccn1 (stereo not shown) [Compound 945600] | 1 to 5 | 0.1 to 1 | –
7 | CCC1(c2cccc(CS(C)(=O)=O)c2)C2=C(CC(C)(C)CC2=O)Nc2n[nH]cc21 (stereo not shown) [Compound 945601] | 0.1 to 1 | 0.1 to 1 | –
8 | CCC1(c2cccc(N3CCOCC3)c2)C2=C(CC(C)(C)NC2=O)Nc2n[nH]cc21 (stereo not shown) [Compound 945602] | – | – | IC50 [1, 5]: > 5 µM; IC50 [2, 6]: 1 to 5 µM
9 | CCC1(c2cccc(-c3cnn4c3CCCC4)c2)C2=C(CC(C)(C)NC2=O)Nc2n[nH]cc21 (stereo not shown) [Compound 945603] | – | – | IC50 [1, 5]: 0.1 to 1 µM; IC50 [2, 6]: ≤ 0.1 µM
10 | CC[C@]1(c2cccc(S(C)(=O)=O)c2)C2=C(CC(C)(C)NC2=O)Nc2n[nH]cc21 [Compound 945604] | – | – | IC50 [1, 5]: ≤ 0.1 µM; IC50 [2, 6]: ≤ 0.1 µM
11 | CC[C@]1(c2cccc(-c3cncn3C)c2)C2=C(CC(C)(C)CC2=O)Nc2n[nH]cc21 [Compound 945605] | ≤ 0.1 | ≤ 0.1 | –
12 | CCC1(c2cccc(-c3ccnc4c3CCC4)c2)C2=C(CC(C)(C)CC2=O)Nc2n[nH]cc21 (stereo not shown) [Compound 945606] | 0.1 to 1 | ≤ 0.1 | IC50 [1, 7]: 1 to 5 µM; IC50 [2, 8]: 0.1 to 1 µM
13 | CC[C@]1(c2cccc(-c3cnc4n3CCCC4)c2)C2=C(CC(C)(C)CC2=O)Nc2n[nH]cc21 [Compound 945607] | 0.1 to 1 | ≤ 0.1 | IC50 [1, 7]: > 5 µM; IC50 [2, 8]: 1 to 5 µM
14 | CC[C@]1(c2cccc(-c3cnn(C)c3C)c2)C2=C(CC(C)(C)NC2=O)Nc2n[nH]cc21 [Compound 945608] | – | – | IC50 [1, 5]: 0.1 to 1 µM; IC50 [2, 6]: ≤ 0.1 µM
15 | CC[C@]1(c2cccc(N(C)c3cc(C)cc(C)n3)c2)C2=C(CC(C)(C)CC2=O)Nc2n[nH]cc21 [Compound 945610] | 0.1 to 1 | ≤ 0.1 | –
16 | CC[C@]1(c2cccc(-c3cnn(C)c3)c2)C2=C(CC(C)(C)NC2=O)Nc2n[nH]c(C)c21 [Compound 945611] | – | – | IC50 [1, 5]: > 5 µM; IC50 [2, 6]: > 5 µM
17 | CC[C@]1(c2cccc(-c3cnc(C)n3C)c2)C2=C(CC(C)(C)CC2=O)Nc2n[nH]cc21 [Compound 945612] | > 5 | 1 to 5 | –
18 | CC[C@@]1(c2cccc(-c3cnc(C)n3C)c2)C2=C(CC(C)(C)CC2=O)Nc2n[nH]cc21 [Compound 945613] | ≤ 0.1 | ≤ 0.1 | IC50 [1, 7]: 1 to 5 µM; IC50 [2, 8]: 0.1 to 1 µM
19 | CCC1(c2cccc(-c3cnn(C)c3)c2)C2=C(CC(C)(C)NC2=O)Nc2n[nH]c(C)c21 (stereo not shown) [Compound 945614] | – | – | IC50 [1, 5]: 0.1 to 1 µM; IC50 [1, 7]: 1 to 5 µM; IC50 [2, 6]: ≤ 0.1 µM; IC50 [2, 8]: 0.1 to 1 µM
20 | CC[C@@]1(c2cccc(-c3cnn(C)c3C)c2)C2=C(CC(C)(C)NC2=O)Nc2n[nH]cc21 [Compound 945617] | – | – | IC50 [1, 5]: > 5 µM; IC50 [2, 6]: 1 to 5 µM
21 | CC[C@@]1(c2cccc(-c3ccnc4c3CCC4)c2)C2=C(CC(C)(C)CC2=O)Nc2n[nH]cc21 [Compound 945619] | > 5 | 1 to 5 | –
22 | CCC1(c2cccc(-c3cncn3C)c2)C2=C(CC(C)(C)CC2=O)Nc2n[nH]cc21 (stereo not shown) [Compound 945620] | 1 to 5 | 0.1 to 1 | –
23 | CC[C@@]1(c2cccc(C(F)(F)F)c2)C2=C(CCN(C(C)(C)C)C2=O)Nc2n[nH]cc21 [Compound 945633] | – | – | IC50 [1, 5]: > 5 µM; IC50 [2, 6]: > 5 µM
24 | CC[C@]1(c2cccc(C(F)(F)F)c2)C2=C(CCN(C(C)(C)C)C2=O)Nc2n[nH]cc21 [Compound 945634] | – | – | IC50 [1, 5]: > 5 µM; IC50 [2, 6]: 1 to 5 µM
25 | CCC1(c2cccc(C(F)(F)F)c2)C2=C(CCN(c3cccnc3)C2=O)Nc2n[nH]cc21 (stereo not shown) [Compound 945637] | – | – | IC50 [1, 5]: 0.1 to 1 µM; IC50 [2, 6]: ≤ 0.1 µM

Row | Compound | IC50 [1, 3] [µM] | IC50 [2, 4] [µM] | further results
26 | CC1(C)CC(=O)C2=C(C1)Nc1n[nH]cc1C21CCN(S(=O)(=O)c2ccccc2Cl)CC1 [Compound 945655] | ≤ 0.1 | ≤ 0.1 | –
27 | COc1cccc(S(=O)(=O)N2CCC3(CC2)C2=C(CC(C)(C)CC2=O)Nc2n[nH]cc23)c1F [Compound 945656] | ≤ 0.1 | ≤ 0.1 | IC50 [1, 9]: 0.1 to 1 µM; IC50 [2, 10]: ≤ 0.1 µM
28 | CC1(C)CC(=O)C2=C(C1)Nc1n[nH]cc1C21CCN(S(=O)(=O)c2ccccc2C(F)F)CC1 [Compound 945657] | 0.1 to 1 | ≤ 0.1 | IC50 [1, 9]: 1 to 5 µM; IC50 [2, 10]: 0.1 to 1 µM
29 | Cc1cnn(C)c1S(=O)(=O)N1CCC2(CC1)C1=C(CC(C)(C)CC1=O)Nc1n[nH]cc12 [Compound 945658] | 1 to 5 | 0.1 to 1 | –
30 | CN(C)C(=O)c1ccc(S(=O)(=O)N2CCC3(CC2)C2=C(CC(C)(C)CC2=O)Nc2n[nH]cc23)cc1 [Compound 945659] | ≤ 0.1 | ≤ 0.1 | –
31 | CC1(C)CC(=O)C2=C(C1)Nc1n[nH]cc1C21CCN(S(=O)(=O)c2ccc(Cl)c(Cl)c2)CC1 [Compound 945660] | ≤ 0.1 | ≤ 0.1 | –
32 | CC1(C)CC(=O)C2=C(C1)Nc1n[nH]cc1C21CCN(S(=O)(=O)c2ccc(Cl)cc2)CC1 [Compound 945661] | ≤ 0.1 | ≤ 0.1 | –
33 | COc1ccc(S(=O)(=O)N2CCC3(CC2)C2=C(CC(C)(C)CC2=O)Nc2n[nH]cc23)c(C)c1C [Compound 945662] | 0.1 to 1 | ≤ 0.1 | –
34 | CC(C)c1nc(S(=O)(=O)N2CCC3(CC2)C2=C(CC(C)(C)CC2=O)Nc2n[nH]cc23)cn1C [Compound 945663] | ≤ 0.1 | ≤ 0.1 | –
35 | CCn1nccc1S(=O)(=O)N1CCC2(CC1)C1=C(CC(C)(C)CC1=O)Nc1n[nH]cc12 [Compound 945664] | ≤ 0.1 | ≤ 0.1 | –
36 | COc1ccc(F)c(S(=O)(=O)N2CCC3(CC2)C2=C(CC(C)(C)CC2=O)Nc2n[nH]cc23)c1 [Compound 945665] | ≤ 0.1 | ≤ 0.1 | –
37 | COc1ccc(S(=O)(=O)N2CCC3(CC2)C2=C(CC(C)(C)CC2=O)Nc2n[nH]cc23)cn1 [Compound 945666] | ≤ 0.1 | ≤ 0.1 | –
38 | CC1(C)CC(=O)C2=C(C1)Nc1n[nH]cc1C21CCN(S(=O)(=O)c2ccccc2C(F)(F)F)CC1 [Compound 945667] | 0.1 to 1 | ≤ 0.1 | –
39 | CC1(C)CC(=O)C2=C(C1)Nc1n[nH]cc1C21CCN(S(=O)(=O)c2ccccc2OC(F)F)CC1 [Compound 945668] | – | – | IC50 [1, 5]: ≤ 0.1 µM; IC50 [1, 9]: 0.1 to 1 µM; IC50 [2, 6]: ≤ 0.1 µM; IC50 [2, 10]: ≤ 0.1 µM
40 | COc1cc(S(=O)(=O)N2CCC3(CC2)C2=C(CC(C)(C)CC2=O)Nc2n[nH]cc23)ccc1Cl [Compound 945669] | ≤ 0.1 | ≤ 0.1 | –
41 | CCOc1ccc(S(=O)(=O)N2CCC3(CC2)C2=C(CC(C)(C)CC2=O)Nc2n[nH]cc23)cc1 [Compound 945670] | ≤ 0.1 | ≤ 0.1 | IC50 [1, 9]: 1 to 5 µM; IC50 [2, 10]: 0.1 to 1 µM
42 | CCn1ccc(S(=O)(=O)N2CCC3(CC2)C2=C(CC(C)(C)CC2=O)Nc2n[nH]cc23)n1 [Compound 945671] | ≤ 0.1 | ≤ 0.1 | –
43 | Cc1ccc(S(=O)(=O)N2CCC3(CC2)C2=C(CC(C)(C)CC2=O)Nc2n[nH]cc23)s1 [Compound 945672] | ≤ 0.1 | ≤ 0.1 | IC50 [1, 9]: 0.1 to 1 µM; IC50 [2, 10]: 0.1 to 1 µM
44 | CC(C)Oc1ccc(S(=O)(=O)N2CCC3(CC2)C2=C(CC(C)(C)CC2=O)Nc2n[nH]cc23)cc1 [Compound 945673] | ≤ 0.1 | ≤ 0.1 | –
45 | Cc1cc(S(=O)(=O)N2CCC3(CC2)C2=C(CC(C)(C)CC2=O)Nc2n[nH]cc23)c(C)s1 [Compound 945674] | 0.1 to 1 | ≤ 0.1 | –
46 | CC(C)Oc1ccc(S(=O)(=O)N2CCC3(CC2)C2=C(CC(C)(C)CC2=O)Nc2n[nH]cc23)cn1 [Compound 945676] | ≤ 0.1 | ≤ 0.1 | –
47 | CC1(C)CC(=O)C2=C(C1)Nc1n[nH]cc1C21CCN(S(=O)(=O)c2cnn(C(C)(C)C)c2)CC1 [Compound 945677] | 0.1 to 1 | ≤ 0.1 | –
48 | Cc1cc(S(=O)(=O)N2CCC3(CC2)C2=C(CC(C)(C)CC2=O)Nc2n[nH]cc23)ccc1OC(C)C [Compound 945678] | 0.1 to 1 | ≤ 0.1 | –
49 | CCn1nc(C)c(S(=O)(=O)N2CCC3(CC2)C2=C(CC(C)(C)CC2=O)Nc2n[nH]cc23)c1C [Compound 945679] | 1 to 5 | 0.1 to 1 | –
50 | COc1ccc(S(=O)(=O)N2CCC3(CC2)C2=C(CC(C)(C)CC2=O)Nc2n[nH]cc23)cc1C [Compound 945680] | ≤ 0.1 | ≤ 0.1 | –
